{
  "source": "patent US11879848B2",
  "about": "“Graphene-based multi-modal sensors” (The Regents of the University of California, priority 2015, dated 2024)",
  "system": "neonatal rat cardiomyocytes (CM)",
  "assay": "cardiomyocyte contractions registered by PMMA/AuNI/graphene strain sensor in electrophysiological chamber",
  "type": "cell-based",
  "details": "10 μM blebbistatin in the solution around the cells; CM culture on PMMA/AuNI/graphene; room temperature",
  "description": "The graphene/metal nanoisland composite film structures can also be deployed in biological settings. For example, the performance of graphene/AuNI sensors in biological settings is tested by culturing neonatal rat cardiomyocytes (CM) on coverslips that are coated with a composite polymethylmethacrylate (PMMA)/AuNI/graphene film structure.\nUsing a specialized chamber shown in FIG. 4c and detailed below, reversible changes in the sensor signal that correlated with the spontaneous activity of cardiomyocytes can be detected, as shown in FIG. 4d.\nAn excitation-contraction uncoupler such as blebbistatin, that inhibits myosin cycling and stops the contractions of the cells, but not the electrical activity, can be used to distinguish whether the signal detected by the strain sensor was related to the contractile or electrical activity of the cells.\nElectrophysiology. Neonatal rat ventricular cardiomyocytes were isolated using the neonatal rat cardiomyocyte isolation kit (Worthington) and cultured at 37° C. with 5% CO2. In brief, ventricles were dissected from 1 d-old Hsd:SD rats (Sprague Dawley), then digested overnight at 4° C. with trypsin. Digestion continued the following morning with collagenase for approximately 60 min at 37° C. […]",
  "data": [
    {"smiles": "Cc1ccc2c(c1)C(=O)C1(O)CCN(c3ccccc3)C1=N2", "note": "(stereo not shown) [blebbistatin]", "values": [
      {"measurement": "modulations of the sensor signal (contractions of the cells)", "result": "No noticeable modulations of the signal"}
    ]}
  ]
}
